Biological target: T1, human CCR5 (Homo sapiens, UniProt P51681)
T1 construct: expressed in transfected cells; host or cells: CHO-K1 cells, stably transfected with pCKR5 (pcDNA3.1 backbone), Geneticin-selected
Assay: Inhibition of [125I]-RANTES binding to CCR5/CHO cells (CCR5 antagonist activity)
Conditions: 40 min, test compound 1 μM, 100 pM [125I]-RANTES as ligand, room temperature, read-out: Binding Inhibitory Ratio (%)
Experimental: (1) Cloning of Human CCR5 Chemokine Receptor Cloning of CCR5 gene was conducted from human spleen cDNA by PCR method. Using cDNA (0.5 ng) from spleen (Toyobo, QUICK-Clone cDNA) as a genetic template, primer sets prepared by referring to CCR5 gene nucleotide sequence described by Samson et al. (Biochemistry 35 (11), 3362-3367 (1996), i.e., (2) Preparation of Expression Plasmid of Human CCR5 […] The DNA fragments and an expression plasmid for animal cells pcDN A3.1 (Funakoshi), which was previously digested by XbaI and BamHI, were mixed and ligated by DNA Ligation Kit Ver. 2 (Takara Shuzo). Transformation of E. coli JM109 competent cells (Takara Shuzo) gave plasmid pCKR5. (3) Introduction of the Human CCR5 Expression Plasmid into CHO-K1 Cells and Expression Thereof […] The cells were washed with PBS (Lifetech Oriental), centrifuged (1000 rpm, 5 minutes), and resuspended in PBS. The DNA was introduced into the cells using Gene Pulser (BioRad) according to the following conditions. […] The cells were diluted to a concentration of 10^4 cells/ml, and inoculated in 96 well plate (Becton Dickinson), to obtain Geneticin-resistant cells. The Geneticin-resistant cells ware grown in 96 well plate (Becton Dickinson), and CCR5 expressing cells were selected from the resistant cells. Namely, in an assay buffer, (Ham F12 medium containing 0.5% BSA, and 20 mM HEPES (Wako Pure Chemical Ind., pH 7.2)), containing 200 pM [^125I]-RANTES (Amersham) as a ligand, the cells were subjected to binding reaction at room temperature for 40 minutes. The well plate containing the cells was washed with ice-cooled PBS, added with 1M NaOH in an amount of 50 μl/well and stirred. The cells to which the ligand bound specifically, i.e., CCR5/CHO cells, were selected by measurement of radioactivity by γ-counter. (4) Evaluation of Compounds Based on CCR5 Antagonist Activity The CCR5/CHO cells were inoculated in 96 well microplate at a concentration of 5×10^4 cells/well, and grown for 24 hours. After removal of the medium by aspiration, to each well was added an assay buffer containing a test compound (1 μM), and (^125I)/RANTES (Amersham) used as a ligand at a concentration of 100 pM. The mixture was subjected to the reaction at room temperature for 40 minutes. After removal of the assay buffer by aspiration, each well was washed with cooled PBS twice. Then, 200 μl MicroScint 20 (Packerd) was added to each well, and the radioactivity of each well was measured by TopCount (Packard). According to the method above, inhibitory ratios to CCR5 binding of the test compounds were determined.

T1 sequence (P51681 whole entry): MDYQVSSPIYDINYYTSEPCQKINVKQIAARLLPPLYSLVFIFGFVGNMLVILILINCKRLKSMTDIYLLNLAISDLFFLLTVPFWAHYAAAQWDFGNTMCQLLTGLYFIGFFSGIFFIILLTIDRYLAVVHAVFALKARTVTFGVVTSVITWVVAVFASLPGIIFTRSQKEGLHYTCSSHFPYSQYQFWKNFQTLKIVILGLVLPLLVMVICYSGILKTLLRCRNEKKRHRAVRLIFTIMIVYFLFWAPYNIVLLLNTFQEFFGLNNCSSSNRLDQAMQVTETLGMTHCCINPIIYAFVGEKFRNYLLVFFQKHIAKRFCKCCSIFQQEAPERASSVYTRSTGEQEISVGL

Row | SMILES | inhibition at 1 µM [%]
1 | CCCCOCCOc1ccc(-c2ccc3c(c2)C=C(C(=O)Nc2ccc([S+]([O-])Cc4cncn4CCC)cc2)CCCN3c2ccccc2)cc1 (stereo not shown) [Compound 35, 8-[4-(2-butoxyethoxy)phenyl]-1-phenyl-N-[4-[[[1-propylimidazol-5-yl]methyl]sulfinyl]phenyl]-1,2,3,4-tetrahydro-1-benzoazocine-5-carboxamide] | 100
2 | CCCCOCCOc1ccc(-c2ccc3c(c2)C=C(C(=O)Nc2ccc(SCc4c(C)ncn4CCC)cc2)CCCN3CC(C)C)cc1 [Compound 36, 8-[4-(2-butoxyethoxy)phenyl]-1-isobutyl-N-[4-[[[4-methyl-1-propylimidazol-5-yl]methyl]sulfanyl]phenyl]-1,2,3,4-tetrahydro-1-benzoazocine-5-carboxamide] | 97
3 | CCCCOCCOc1ccc(-c2ccc3c(c2)C=C(C(=O)Nc2ccc([S+]([O-])Cc4c(C)ncn4CCC)cc2)CCCN3CC(C)C)cc1 (stereo not shown) [Compound 37, 8-[4-(2-butoxyethoxy)phenyl]-1-isobutyl-N-[4-[[[4-methyl-1-propylimidazol-5-yl]methyl]sulfinyl]phenyl]-1,2,3,4-tetrahydro-1-benzoazocine-5-carboxamide] | 100
4 | CCCCOCCOc1ccc(-c2ccc3c(c2)C=C(C(=O)Nc2ccc(SCc4cncn4CCC)c(C)c2)CCCN3CC(C)C)cc1 [Compound 38, 8-[4-(2-butoxyethoxy)phenyl]-1-isobutyl-N-[3-methyl-4-[[[1-propylimidazol-5-yl]methyl]sulfanyl]phenyl]-1,2,3,4-tetrahydro-1-benzoazocine-5-carboxamide] | 94
5 | CCCCOCCOc1ccc(-c2ccc3c(c2)C=C(C(=O)Nc2ccc([S+]([O-])Cc4cncn4CCC)c(C)c2)CCCN3CC(C)C)cc1 (stereo not shown) [Compound 39, 8-[4-(2-butoxyethoxy)phenyl]-1-isobutyl-N-[3-methyl-4-[[[1-propylimidazol-5-yl]methyl]sulfinyl]phenyl]-1,2,3,4-tetrahydro-1-benzoazocine-5-carboxamide] | 99
6 | CCCCOCCOc1ccc(-c2ccc3c(c2)C=C(C(=O)Nc2ccc(CN(C)C4CCOCC4)cc2)CCCN3CC(C)C)cc1 [Compound 42, 8-(4-(2-butoxyethoxy)phenyl)-1-isobutyl-N-(4-((methyl(tetrahydro-2H-pyran-4-yl)amino)methyl)phenyl)-1,2,3,4-tetrahydro-1-benzoazocine-5-carboxamide] | 90
7 | CCCCOCCOc1ccc(-c2ccc3c(c2)C=C(C(=O)Nc2ccc([S+]([O-])Cc4nncn4CCC)cc2)CCCN3CCC)cc1 (stereo not shown) [Compound 50, 8-[4-(2-butoxyethoxy)phenyl]-1-propyl-N-[4-[[(4-propyl-4H-1,2,4-triazol-3-yl)methyl]sulfinyl]phenyl]-1,2,3,4-tetrahydro-1-benzazocine-5-carboxamide] | 93

Same assay, conditions: test compound 1 μM, 100 pM [125I]-RANTES as ligand, room temperature, 40 minutes

Row | SMILES | Binding Inhibitory Ratio (%)
8 | CCCCOCCOc1ccc(-c2ccc3c(c2)C=C(C(=O)Nc2ccc(SCc4cncn4CCC)cc2)CCCN3CC(C)C)cc1 [Compound 8, 8-[4-(2-butoxyethoxy)phenyl]-I-isobutyl-N-[4-[[[1-propyl-1H-imidazol-5-yl]methyl]sulfanyl]phenyl]-1,2,3,4-tetrahydro-1-benzazocine-5-carboxamide] | 99
9 | CCCCOCCOc1ccc(-c2ccc3c(c2)C=C(C(=O)Nc2ccc([S+]([O-])Cc4cncn4CCC)cc2)CCCN3CC(C)CO)cc1 (stereo not shown) [Compound 32, 8-[4-(2-butoxyethoxy)phenyl]-1-(2-methyl-3-hydroxy)propyl-N-[4-[[[1-propylimidazol-5-yl]methyl]sulfinyl]phenyl]-1,2,3,4-tetrahydro-1-benzoazocine-5-carboxamide] | 100
10 | CCCOCCOc1ccc(-c2ccc3c(c2)C=C(C(=O)Nc2ccc([S@@+]([O-])Cc4cncn4CCC)cc2)CCCN3CCC)cc1.CS(=O)(=O)O [Compound 45, (S)-(−)-8-[4-(2-propoxyethoxy)phenyl]-1-propyl-N-[4-[[(1-propyl-1H-imidazol-5-yl)methyl]sulfinyl]phenyl]-1,2,3,4-tetrahydro-1-benzoazocine-5-carboxamide/methanesulfonate] | 96
